The text below walks through data of patent US8372612B2, “Production of four carbon alcohols using improved strain” (Butamax(TM) Advanced Biofuels LLC, priority 2007, dated 2013).

For experiment [1], the system named is mutant spoT DPD1848 line as compared to wild type EC100. The class given is cell-based, E. coli. The following applies: for % improved spoT growth over wt: approximately 18 hours, spoT mutant percent growth minus wild type percent growth. As to the method: Kinetic growth studies were performed for the DPD1848 and the control (EC100) using the Bioscreen C Automated Microbial Growth Curve Analyis System (Oy Growth Curves Ab Ltd., Helsinki, Finland), which is an automated 96 well plate system, that monitors growth of many cultures simultaneously, each in a volume of 150 μl. Overnight triplicate cultures of each strain were grown and diluted (1:10) into either LB or LB freshly supplemented with 0.2%, 0.3%. 0.4% or 0.6% 1-butanol (w/v). The growth of each culture was followed for approximately 18 hours. The triplicates were averaged and plotted in FIG. 3 as the final 18 hour time point, normalized to EC100, and given as the percent growth inhibition relative to the no butanol control for each strain.
An additional kinetic growth study was performed as described above. The data is shown in FIG. 4 plotted as OD600 over time for the DPD1848 spoT mutant (A), and wild type (B, EC100).
A Bioscreen experiment, as described in Example 3, was used to compare growth of the mutant spoT DPD1848 line as compared to wild type EC100 in the following chemicals:
The growth of each culture was followed for approximately 18 hours. Triplicate samples were averaged, and expressed as the percent growth relative to the no chemical control for each strain. The data given in Table 8 is represented as percent growth improvement of the spoT mutant relative to wild type, which is the spoT mutant percent growth minus the wild type percent growth for each challenge.

For experiment [2], the system named is relA::kan line (strain JW2755) and the parent BW25113. The class given is cell-based, E. coli K12. The method, then:
A strain of E. coli K12 having a kanamycin marker insertion in the relA coding region (relA::kan) is available in the Keio knockout collection that is described in Example 4. Overnight cultures of the relA::kan line (strain JW2755) and the parent BW25113 were inoculated with fresh colonies and grown in LB at 37° C. with shaking. The next day the cultures were diluted 1:100 into 100 ml of fresh LB in a 1 liter flask and grown for approximately 2 hours. The culture was split into 20 ml aliquots in 125 ml plastic screw top flasks. One culture remained unaltered serving as the no add control, and various concentrations of either 2-butanol or isobutanol were added to the remaining flasks. Absorbance (OD600) was monitored over time. Using a 3 hr time point for growth in isobutanol and a 2.5 hr time point for growth in 2-butanol, fractional growth yields were determined and percent improvement was calculated by subtracting […] and multiplying by 100.

Experiment [3] has as its system Lactobacillus plantarum PN0512. Nature of the experiment: Growth rate in Lacto Synthetic Medium with isobutanol, parental control. The class given is cell-based. The following applies: for Growth rate: PN0512, 30° C., LSM. As to the method:
(§1) Strains MS0280 and MS0281, and Lactobacillus plantarum PN0512 (ATCC #PTA-7727), were tested for tolerance to isobutanol. The strains were streaked on semi-synthetic medium plates, pH 6 (medium composition: 10 mM ammonium sulfate, 5 mM potassium phosphate buffer, pH 6.0, 50 mM MES, pH 6.0, 2 mM MgCl2, 0.7 mM CaCl2, 50 μM MnCl2, 1 μM FeCl3, 1 μM ZnCl2, 1.72 μM CuCl2, 2.53 μM CoCl2, 2.42 μM Na2MoO4, 2 μM thiamine hydrochloride, 10 mM glucose, 0.01% casamino acids, 0.2% yeast extract and 1.5% agar), from frozen stock cultures. The plates that the two mutants (MS0280 and MS0281) were streaked onto also included chloramphenicol at 10 μg/ml. The plates were incubated overnight at 30° C. under anaerobic conditions. The next day, overnight cultures were started by inoculating Lacto Synthetic Medium (LSM; medium composition: 10 mM ammonium sulfate, 5 mM potassium phosphate buffer, pH 6.0, 50 mM MES, pH 6.0, 2 mM MgCl2, 0.7 mM CaCl2, 50 μM MnCl2, 1 μM FeCl3, 1 μM ZnCl2, 1.72 μM CuCl2, 2.53 μM CoCl2, 2.42 μM Na2MoO4, 2 μM thiamine hydrochloride, 10 mM glucose, 0.01% casamino acids and 0.2% yeast extract) with a diluted (1:6) culture with an initial OD600 of 0.02. These overnight cultures were allowed to incubate at 30° C. in a gently shaking water bath. The next morning, the overnight cultures were diluted to have an initial OD600 of 0.1, in a volume of 220 ml of LSM. These starter cultures were allowed to incubate at 30° C. in a gently shaking water bath for 1.25 hours, to ensure the cultures were not in a lag phase. At this time, 20 ml aliquots were dispensed to duplicate flasks containing different volumes of isobutanol, to give final concentrations of 0, 0.5, 1, 1.5 and 2%. The growth of each flask was followed by taking OD600 readings every hour. The natural log of the OD600 values were plotted on a linear scale vs time.

The test system of experiment [4] is L. plantarum spoT mutant MS0280. Put plainly: Growth rate in Lacto Synthetic Medium with isobutanol, spoT mutant MS0280. In kind it is cell-based, Lactobacillus plantarum. The following applies: for Growth rate: MS0280, 30° C., LSM. As to the method: as §1
Experiment [5] has as its system L. plantarum spoT mutant MS0281. Put plainly: Growth rate in Lacto Synthetic Medium with isobutanol, spoT mutant MS0281. To be noted: for Growth rate: MS0281, 30° C., LSM. In kind it is cell-based, Lactobacillus plantarum. As to the method: as §1
Experiment [6] has as its system rpoZ insertion line (JW3624) and wild type BW25113. To be noted: 0.4% 1-butanol; FIG. 5.
Description: The growth points of triplicate cultures were averaged and plotted in FIG. 5 as absorbance at OD600.
Experiment [7] concerns E. coli strain EC100. The following applies: LB agar, closed chamber, 37° C., 1 day.
Protocol: LB agar media supplemented with butanol was prepared fresh one day before innoculating at an appropriate volume and cooled for 2 hours in a 50° C. water bath. LB agar plates supplemented with butanol were prepared by dispensing 67 mls of melted agar, using a peristaltic pump and sterile Nalgene tubing, into sterile Omni trays with lids (Nunc mfg no. 242811). […] The plates were allowed to cool and set for approximately an hour before they were stored overnight in closed anaerobic chambers at room temperature in the chemical/biological hood. The next morning, the chambers harboring the plates were opened and allowed to air dry for approximately 1 hour before using.
Plates were incubated in a closed chamber at 37° C. for 1 day. The number of colonies arising and their sizes were scored. […] Butanol concentrations of 0.4% and 0.6% were chosen to screen for tolerance.
Experiment [8] has as its system DPD1850 (spoT), DPD1848 (spoT), DPD1865 (rpoZ) and the EC100 control. The following applies: 0.5% (w/v) 1-butanol; LB, 37° C.; FIG. 2.
Protocol: After a further 2 hr incubation at 37° C. with shaking, 200 μl samples were transferred to a microtiter plate and optical density at A600 recorded. The microtiter plate was moved to a platform shaker that was located within a plastic box that is in a 37° C. incubator.
The test system of experiment [9] is rpoZ::kan line JW3624 and wild type control BW25113. To be noted: 0.4 and 0.6% 1-butanol; FIG. 8. The method, then:
Cultures were grown in LB medium containing 0%, 0.4% or 0.6% 1-butanol in shake flasks. The experiments were performed by inoculating 100 ml of medium in a 250 ml plastic flask with 2 ml of an overnight culture grown from a single colony grown at 37° C. and incubating with shaking for approximately two doubling times (1 hour), to an OD600 between 0.2 and 0.3. Each culture was split into five 25 ml cultures in plastic screw top 125 ml flasks and the cultures were maintained at 37° C. in a shaking water bath at 200 rpm. The OD600 was monitored at 0, 30, 90, 120 190, and 260 minutes.
In the cultures above, a final time point was taken at 18 hr and used to calculate growth yield as a function of 1-butanol challenge. For each line grown in 0, 0.4% or 0.6% 1-butanol, the final 18 hour time point was divided by the no 1-butanol 18 hr time point.

The structures appear in SMILES notation. Like-named read-outs stand apart in the source and are kept apart here. Where only a bound is given, the exact number is not on record here.

Regarding `CCC(C)=O` [MEK, methyl ethyl ketone], the “% improved spoT growth over wt” value was 0% in experiment [1] (chemical at 2.50% (w/v)), 3.1% in [1] (chemical at 3% (w/v)), 4.3% in experiment [1] (chemical at 3.50% (w/v)) and 33.5% in experiment [1] (chemical at 4% (w/v)).
In the case of `CCC(C)=O` [2-butanone], the “% improved spoT growth over wt” value in [1] (chemical at 3% (w/v)) is recorded as “about 3%”.
As to `CC(C)CO` [isobutanol], the “% improved spoT growth over wt” value in experiment [1] (chemical at 0.80% (w/v)) was “about 13.5%”; in [1] (chemical at 0.80% (w/v), listed as IsoBuOH), 13.5%; in experiment [1] (chemical at 1.20% (w/v)) it was 12.1%; in experiment [1] (chemical at 1.40% (w/v)), 11.4%; in experiment [1] (chemical at 1.60% (w/v)) it was 10.7%. Further, the “Percent improvement of fractional growth yield of relA mutant relative to the parent” value in [2] (0.8% isobutanol, 3 hr time point, FIG. 10A) is “small improvement”. In addition, the Growth rate is recorded as 0.424 μ/hour in experiment [3] (isobutanol concentration 0.5%); 0.385 μ/hour in experiment [3] (isobutanol concentration 1%); 0.364 μ/hour in experiment [3] (isobutanol concentration 1.5%); 0.349 μ/hour in experiment [3] (isobutanol concentration 2%); 0.464 μ/hour in experiment [4] (isobutanol concentration 0.5%); 0.426 μ/hour in experiment [4] (isobutanol concentration 1%). Moreover, the Growth rate in experiment [4] (isobutanol concentration 1.5%) amounted to 0.382 μ/hour; in [4] (isobutanol concentration 2%), 0.359 μ/hour; in experiment [5] (isobutanol concentration 0.5%) it was 0.467 μ/hour; in experiment [5] (isobutanol concentration 1%) it was 0.426 μ/hour; in experiment [5] (isobutanol concentration 1.5%) it was 0.397 μ/hour; in [5] (isobutanol concentration 2%), 0.359 μ/hour. Also, the Growth rate inhibition is listed as 9% in experiment [3] (the parent (PN0512), 0.5% isobutanol, growth rates in presence and absence of isobutanol compared); 5% in experiment [4] (the mutants (MS0280), 0.5% isobutanol, growth rates in presence and absence of isobutanol compared); 5% in experiment [5] (the mutants (MS0281), 0.5% isobutanol, growth rates in presence and absence of isobutanol compared).
As to `CCC(C)O` (stereo not drawn) [2-butanol], the “% improved spoT growth over wt” value in experiment [1] (chemical at 0.80% (w/v)) is recorded as “about 7%”; in experiment [1] (chemical at 0.80% (w/v), listed as 2-BuOH) it was 7.2%; in experiment [1] (chemical at 1.20% (w/v)) it was 0%; in experiment [1] (chemical at 1.40% (w/v)), 0%; in [1] (chemical at 1.60% (w/v)) it was 0%. Further, the “Percent improvement of fractional growth yield of relA mutant relative to the parent” value was “small improvement” in [2] (0.6% 2-butanol, 2.5 hr time point, FIG. 10B) and “small improvement” in [2] (0.8% 2-butanol, 2.5 hr time point, FIG. 10B).
Regarding `CCCCO` [1-butanol], in experiment [6], the “Butanol tolerant phenotype of rpoZ insertion line (OD600 growth)” value is “butanol tolerant phenotype was seen”. The “Concentration at which only pinpoint colonies were seen” value in experiment [7] was determined as 0.6%. Moreover, the “Concentration from which colonies were progressively smaller” value in [7] was not below 0.2%. Moreover, the “Concentrations at which no colony formation was observed after overnight incubation” value in experiment [7] is on record as ≥ 0.7 % (w/v). The “Tolerance of spoT mutant versus wild type strain in terms of growth rate” value in experiment [1] (all concentrations of 1-butanol tested (0.2%, 0.3%, 0.4%, 0.6% w/v), FIG. 4) was “more tolerant”. The “% improved spoT growth over wt” value in [1] (chemical at 0.2% (w/v)) is 11.4%; in experiment [1] (chemical at 0.3% (w/v)), 13.8%; in experiment [1] (chemical at 0.4% (w/v)) it was “about 16.5%”; in experiment [1] (chemical at 0.4% (w/v), listed as 1-BuOH) it was 16.5%; in experiment [1] (chemical at 0.6% (w/v)) it was 9.7%. In experiment [8], the “Growth of spoT and rpoZ lines relative to EC100 (difference between 4 and 2 hr time points)” value is “improved growth”. In addition, the “Growth yield of rpoZ mutant versus wild type (18 hr time point divided by no 1-butanol 18 hr time point)” value in experiment [9] was “higher growth yields than wild type”.
